Data from US20060135773A1, “Trisubstituted nitrogen modulators of tyrosine phosphatases” (priority 2004, published 2006).

Molecular target: T1, PTP-1B (Homo sapiens, UniProt P18031)
T1 construct: PTP-1B (purified, 1 mg/mL) as a 1:250 dilution
T1 sequence (P18031 1-321 limits assumed): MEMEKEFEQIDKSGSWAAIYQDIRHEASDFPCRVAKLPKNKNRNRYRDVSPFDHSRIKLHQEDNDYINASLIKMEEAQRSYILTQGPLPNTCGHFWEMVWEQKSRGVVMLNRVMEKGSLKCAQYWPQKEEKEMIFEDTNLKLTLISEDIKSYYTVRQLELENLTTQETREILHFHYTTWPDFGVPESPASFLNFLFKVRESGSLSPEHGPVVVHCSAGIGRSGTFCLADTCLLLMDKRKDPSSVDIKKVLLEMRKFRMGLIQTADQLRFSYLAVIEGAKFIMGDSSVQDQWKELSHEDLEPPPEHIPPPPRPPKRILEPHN
Assay: pNPP tyrosine phosphatase inhibition assay, PTP-1B
Format: biochemical
Details: pNPP assay, PTP-1B; read-out: Activity Class (IC50 ranges)
Experimental: The compounds provided herein are evaluated for biological activity as inhibitors of PTP-1B using, for example, a pNPP assay can be used to screen compounds for tyrosine phosphatase inhibitory activity as described in the Examples.
A 5× stock of pNPP (p-nitrophenol phosphate) substrate is prepared as 50 mM pNPP in assay buffer. Various tyrosine phosphatase solutions can be prepared as follows: • PTP-1B (purified, 1 mg/mL) as a 1:250 dilution (to a final concentration of 4:g/mL); • TC-PTP (NEB, 1000 units in 100:L) as a 1:50 dilution (to a final concentration of 2U/10:L (4:g/mL)); • CD45 (Calbiochem, 20:g, 400 units in 100:L) as a 1:50 dilution (to a final concentration of 0.8U/10:L (4:g/mL)); • LAR (NEB, 1000 units in 200:L) as a 1:75 dilution (to a final concentration of 0.7U/10:L (4:g/mL)); and • PTP-β (UBI, #14-350, 10,000 units, 40:g/571:L) as a 1:17.5 dilution (to a final concentration of 10U/10:L (4:g/mL));
The compound to be tested is prepared as 1:16.7 and 1:50 dilutions from stock in a total volume of […] DMSO to give final concentrations of 626 and 200:M. The reaction mixtures are prepared in a 96-well microtiter plate (on ice) as 55:L assay buffer, 5:L of the diluted compound (to a final concentration of 31.3 and 10:M), 20:L of the pNPP substrate solution (to a final concentration of 10 mM) and 20:L PTPase in assay buffer. The reactants are mixed well, the plate placed in a water bath at 30° C. and incubated for 10 minutes. The reaction is then terminated by adding 100:L of 2M K2CO3 per well, and the absorbance is measured at 405 nm by conventional means.
Unless otherwise indicated, this assay was used to determine activity for the selected compounds whose activity is provided in Table 1.

| Structure (SMILES) | IC50 [nM] |
| --- | --- |
| COc1ccccc1S(=O)(=O)N(Cc1ccc(-c2nn[nH]n2)cc1)Cc1ccc(-c2nn[nH]n2)cc1 [Compound 110, 2-Methoxy-N,N-bis-[4-(2H-tetrazol-5-yl)-benzyl]-benzenesulfonamide] | > 25000 |
| COc1ccccc1S(=O)(=O)N(Cc1ccc(C(F)(F)P(=O)(O)O)c(Cl)c1)Cc1ccccc1OCCCC(C)C [Compound 215, {[2-Chloro-4-({(2-methoxy-benzenesulfonyl)-[2-(4-methyl-pentyloxy)-benzyl]-amino}-methyl)-phenyl]-difluoro-methyl}-phosphonic acid] | 250 to 499 |
| O=P(O)(O)C(F)(F)c1ccc(CN(Cc2ccc(C(F)(F)P(=O)(O)O)cc2)S(=O)(=O)c2ccccc2C(F)(F)F)cc1 [Compound 90, [(4-{[[4-(Difluoro-phosphono-methyl)-benzyl]-(2-trifluoromethyl-benzenesulfonyl)-amino]-methyl}-phenyl)-difluoro-methyl]-phosphonic acid] | 250 to 499 |
| COc1ccccc1S(=O)(=O)N(Cc1ccc(C(F)(F)P(=O)(O)O)c(Cl)c1)Cc1ccccc1N1CCCCC1 [Compound 208, [(2-Chloro-4-{[(2-methoxy-benzenesulfonyl)-(2-piperidin-1-yl-benzyl)-amino]-methyl}-phenyl)-difluoro-methyl]-phosphonic acid] | 250 to 499 |
| O=C(O)CCc1ccc(S(=O)(=O)N(Cc2ccc(Cl)c(Cl)c2)Cc2ccc(C(F)(F)P(=O)(O)O)c(Br)c2)cc1 [Compound 122, 3-{4-[[3-Bromo-4-(difluoro-phosphono-methyl)-benzyl]-(3,4-dichloro-benzyl)-sulfamoyl]-phenyl}-propionic acid] | 100 to 249 |

Now from value to compound:

| IC50 [nM] | Structure (SMILES) |
| --- | --- |
| 250 to 499 | COc1ccccc1S(=O)(=O)N(CCc1ccc(-c2cccc(C(=O)O)c2)cc1)Cc1ccc(C(F)(F)P(=O)(O)O)c(Cl)c1 [Compound 188, 4′-{2-[[3-Chloro-4-(difluoro-phosphono-methyl)-benzyl]-(2-methoxy-benzenesulfonyl)-amino]-ethyl}-biphenyl-3-carboxylic acid] |
| 100 to 249 | COc1ccccc1S(=O)(=O)N(Cc1ccc(-c2cccc(C#N)c2)cc1)Cc1ccc(C(F)(F)P(=O)(O)O)c(Cl)c1 [Compound 46, [(2-Chloro-4-{[(3′-cyano-biphenyl-4-ylmethyl)-(2-methoxy-benzenesulfonyl)-amino]-methyl}-phenyl)-difluoro-methyl]-phosphonic acid] |
| 250 to 499 | CS(=O)(=O)c1cccc(-c2ccc(S(=O)(=O)N(Cc3ccc(C#N)cc3)Cc3ccc(C(F)(F)P(=O)(O)O)c(Cl)c3)cc2)c1 [Compound 144, [(2-Chloro-4-{[(4-cyano-benzyl)-(3′-methanesulfonyl-biphenyl-4-sulfonyl)-amino]-methyl}-phenyl)-difluoro-methyl]-phosphonic acid] |
| 100 to 249 | COc1ccccc1S(=O)(=O)N(Cc1ccc(-c2ccc3c(c2)C(=O)OC3)cc1)Cc1ccc(C(F)(F)P(=O)(O)O)c(Cl)c1 [Compound 197, 6-{4-[({[4-(difluorophosphonomethyl)-3-chlorophenyl]methyl}[(2-methoxyphenyl)sulfonyl]amino)methyl]phenyl}-3-hydroisobenzofuran-1-one] |
| 250 to 499 | COC(=O)c1cccc(-c2cccc(CCN(Cc3ccc(C(F)(F)P(=O)(O)O)c(Cl)c3)S(=O)(=O)c3ccccc3OC)c2)c1 [Compound 185, 3′-{2-[[3-Chloro-4-(difluoro-phosphono-methyl)-benzyl]-(2-methoxy-benzenesulfonyl)-amino]-ethyl}-biphenyl-3-carboxylic acid methyl ester] |
| < 99 | COc1ccccc1S(=O)(=O)N(Cc1ccc(-c2cccc(C(=O)O)c2)cc1)Cc1ccc(C(F)(F)P(=O)(O)O)c(Cl)c1 [Compound 149, 4′-{[[3-Chloro-4-(difluoro-phosphono-methyl)-benzyl]-(2-methoxy-benzenesulfonyl)-amino]-methyl}-biphenyl-3-carboxylic acid] |
